Patent publication US20260217698A1 (BEYANG THERAPEUTICS CO., LTD., priority 2022, published 2026)
In brackets after ≈: the same amount, converted by molar mass. Like-named read-outs stand apart in the source and are kept apart here.

Tests used:
VEGFR1 = target: T1, VEGFR1 (Homo sapiens, UniProt P17948); assay: Kinase inhibition, Mobility Shift Assay/IMAP, VEGFR1; type: biochemical
T1 construct: purchased Invitrogen PR6731B
Summary of the method: (§1)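 Substrate conversion (phosphorylated vs non-phosphorylated) read by mobility shift on Caliper EZ Reader II and converted to % inhibition relative to no-enzyme and DMSO controls. IC50 fitted from % inhibition versus log compound concentration.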

VEGFR3 = target: T2, VEGFR3 (Homo sapiens, UniProt P35916); assay: Kinase inhibition, Mobility Shift Assay/IMAP, VEGFR3; type: biochemical
T2 construct: purchased Invitrogen PV4129
Summary of the method: as §1

TIE2 = target: T3, TIE2 (Homo sapiens, UniProt Q02763); assay: Kinase inhibition, Mobility Shift Assay/IMAP, TIE2; type: biochemical
T3 construct: purchased BPS 40270
Summary of the method: as §1

EGFR = target: T4, EGFR (Homo sapiens, UniProt P00533); assay: Kinase inhibition, Mobility Shift Assay/IMAP, EGFR; type: biochemical
T4 construct: purchased Carna 08-115
Summary of the method: as §1

HUVEC cells = assay: Inhibition of VEGF-induced HUVEC cell proliferation, CellTiter Glo; type: cell-based; conditions: Homo sapiens, 20 ng/ml VEGF, 72 hours
Description: In this experiment, human umbilical vein endothelial cells (HUVEC, Lonza) were used. HUVEC cells are primary cells isolated from umbilical veins. This cell line is a model system to study the functions of endothelial cells. Endothelial cell proliferation in response to VEGF is crucial to the pathological angiogenesis associated with conditions such as tumor development and ocular neovascular diseases.
In this assay, a luciferase bioluminescence assay (CellTiter GLU™, Promega) is used to determine the inhibitory activity of the compounds against VEGF-induced HUVEC cell proliferation and viability. CellTiter GLO™ is a homogeneous method for quantifying the count of viable cells in culture based on ATP, an indicator of metabolically active cells. In this assay, the compound was incubated with HUVEC cells for 72 hours, and then the inhibitory activity of the resulting compound against VEGF-induced HUVEC cell proliferation was measured on the En Vision plate reader.
With the RPMI-1640 medium (plus 5% FBS, 1% Penicillin-Streptomycin) used for the HUVEC cell proliferation experiment, add a cell suspension to a 96-well plate at 100 μl per well, i.e., 4000 HUVEC cells/well, and incubate them overnight in a 5% CO2 incubator at 37° C. (serum starvation). After 24 hours, add 96 μl of the experimental medium to the cell wells, and then add 2 μl of the compound to the cell wells; and after 1 hour following the addition of the compound, add 2 μl of 2 μg/ml VEGF to the cell wells. Add 0.1% DMSO and 20 ng/ml VEGF to cell wells to serve as high-reading control wells. Take cell-free wells with only medium as low-reading control wells. […] After 72 hours of incubation of the cell plate in the incubator, hold the cell plate to be tested at room temperature and discard 100 μl of medium per well. Add 100 μl of CTG reagent (CellTiter Glo kit) per well, oscillate the cell plate in a fast oscillator for 3 minutes, and keep the cell plate at room temperature in the dark for 30 minutes. Read the chemiluminescence signal value with the Envision instrument.
X indicates the log value of compound concentration, Y indicates the inhibition rate (% inhibition), Top indicates the readout of the high-reading control well.

[1] = Solubility test in buffer, LC-MS; type: physicochemical; conditions: aqueous buffer, thermodynamic from solid, room temperature, shaking 8 h, pH not given (method: pH 2.0, 6.5, 7.4)
Summary of the method: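 Compound at 2 mg/mL in buffers of pH 2.0, 6.5 and 7.4, sonicated, shaken 8 h at room temperature, then centrifuged at 13,000 rpm. Supernatant quantified by LC-MS against a 3–5 point calibration.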

VEGFR2 [2] = target: T5, VEGFR2 (Homo sapiens, UniProt P35968); assay: Kinase inhibition, Mobility Shift Assay/IMAP, VEGFR2; type: biochemical; design: purchased Carna 08-191
Summary of the method: as §1
Target sequence in this assay (P35968 790-1356 limits assumed): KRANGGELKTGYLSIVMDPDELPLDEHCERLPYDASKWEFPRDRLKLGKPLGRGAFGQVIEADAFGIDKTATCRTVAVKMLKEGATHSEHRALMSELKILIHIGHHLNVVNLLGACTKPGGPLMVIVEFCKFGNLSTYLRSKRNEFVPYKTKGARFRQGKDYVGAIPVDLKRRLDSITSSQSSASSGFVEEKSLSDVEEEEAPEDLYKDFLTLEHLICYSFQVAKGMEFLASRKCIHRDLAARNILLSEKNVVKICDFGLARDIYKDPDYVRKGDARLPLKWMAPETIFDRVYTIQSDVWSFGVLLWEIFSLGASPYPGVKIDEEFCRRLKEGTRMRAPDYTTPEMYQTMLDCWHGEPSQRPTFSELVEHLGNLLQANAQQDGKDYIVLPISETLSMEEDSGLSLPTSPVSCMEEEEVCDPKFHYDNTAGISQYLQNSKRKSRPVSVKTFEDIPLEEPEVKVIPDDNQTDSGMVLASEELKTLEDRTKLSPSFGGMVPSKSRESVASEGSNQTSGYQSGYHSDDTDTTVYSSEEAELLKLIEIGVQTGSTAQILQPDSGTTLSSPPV

VEGFR2 [3] = target: T5, VEGFR2; assay: Inhibition of VEGF-induced VEGFR2 autophosphorylation (pVEGFR2) in HUVEC cells, ELISA; type: cell-based; design: endogenous in cells; host or cells: HUVEC; conditions: 50 ng/mL human VEGF, compound 1 h
Description: Vascular endothelial growth factor receptor 2 (VEGFR2) is a primary receptor for VEGF-induced endothelial cell signaling. After ligand binding, VEGFR2 is autophosphorylated and activated. The main function of signaling from VEGFR2 is to induce vascularization during development and after tissue injury, and to bypass blocked blood vessels. Pathologically, VEGF and VEGFR2 are involved in tumor angiogenesis and vascular leakage. They are considered to be main participants in many different cancers and ocular diseases that accompany pathological neovascularization. This assay measured the ability of the compounds to inhibit VEGF-induced VEGFR2 autophosphorylation (pVEGFR2) in HUVEC cells by using ELISA.
Culture cells in a cell culture flask to reach a fusion degree of 60%-80% before cell inoculation. Dilute the cell suspension to […] with a pre-warmed complete medium. Add 80 μL of the cell suspension to all wells of a 96-well cell plate (Corning-3599); and incubate the plate overnight at 37° C. in the presence of 5% CO2. Dissolve the compound powder to 10 mM with DMSO and store it in a nitrogen cabinet. Compound dilution plate: Add a reference compound Ponatinib or a compound to be tested to a 96 V-well plate (Axygen-WIPP 2280) at concentrations achieved as follows: performing 3-fold gradient dilution starting from 5 mM (5 μL of 10 mM compound solution plus 5 μL of DMSO) for a total of 8 concentration points. […] Transfer 20 μL of the diluted compound from the intermediate plate to a cell plate. Then, incubate the cell plate for 1 h at 37° C. in the presence of 5% CO2. After the compound was treated for 1 h, add 25 μL of 250 ng/ml human VEGF at a final concentration of 50 ng/mL to a 96-well plate; and incubate the plate for 5 min at 37° C. in the presence of 5% CO2, centrifuge the plate for 10 min at 3,000 rpm, remove the medium and wash the cells once with 300 μL of pre-chilled DPBS per well. Then, centrifuge the plate for 10 min at 4,000 rpm, remove DPBS, and add 110 μL of pre-chilled 1× cell lysis buffer per well to the 96-well plate. Shake the plate for 40 min at 4° C. Then, freeze the plate in a refrigerator at −80° C. On the next day, remove the plate from the refrigerator at −80° C., thaw the plate, centrifuge the plate for 10 min at 3500 rpm, and add 100 μL of the supernatant per well to an ELISA plate. Seal the plate and incubate it for 2 h at 37° C. Wash the wells 4 times with 1× wash buffer. Add 100 μL of recombinant detection antibody per well. Seal the plate, incubate the plate for 1 h at 37° C., and repeat the step of plate washing. Add 100 μL of secondary antibody per well. Seal the plate, incubate the plate for 30 min at 37° C., and repeat the step of plate washing. Add 100 μL of TMB (protected from light) per well. Seal the plate, incubate the plate for 30 min at 37° C., and add 100 μL of the stop solution per well. Gently shake for 30 sec, measure the absorbance with a SpectraMax® 340 PC 384 Absorbance Microplate Reader within 30 min, and read an optical density value at 450 nm. Conduct data analysis using XL Fit software:
Conduct curve fitting using the 4 Parameter Logistic Model or Sigmoidal Dose-Response Model to obtain IC50 values.
X indicates the log value of compound concentration, Y indicates the inhibition rate (% inhibition), Top indicates the readout of the negative control wells, and Bottom indicates the readout of the positive control well.
Target sequence in this assay (P35968 20-1356): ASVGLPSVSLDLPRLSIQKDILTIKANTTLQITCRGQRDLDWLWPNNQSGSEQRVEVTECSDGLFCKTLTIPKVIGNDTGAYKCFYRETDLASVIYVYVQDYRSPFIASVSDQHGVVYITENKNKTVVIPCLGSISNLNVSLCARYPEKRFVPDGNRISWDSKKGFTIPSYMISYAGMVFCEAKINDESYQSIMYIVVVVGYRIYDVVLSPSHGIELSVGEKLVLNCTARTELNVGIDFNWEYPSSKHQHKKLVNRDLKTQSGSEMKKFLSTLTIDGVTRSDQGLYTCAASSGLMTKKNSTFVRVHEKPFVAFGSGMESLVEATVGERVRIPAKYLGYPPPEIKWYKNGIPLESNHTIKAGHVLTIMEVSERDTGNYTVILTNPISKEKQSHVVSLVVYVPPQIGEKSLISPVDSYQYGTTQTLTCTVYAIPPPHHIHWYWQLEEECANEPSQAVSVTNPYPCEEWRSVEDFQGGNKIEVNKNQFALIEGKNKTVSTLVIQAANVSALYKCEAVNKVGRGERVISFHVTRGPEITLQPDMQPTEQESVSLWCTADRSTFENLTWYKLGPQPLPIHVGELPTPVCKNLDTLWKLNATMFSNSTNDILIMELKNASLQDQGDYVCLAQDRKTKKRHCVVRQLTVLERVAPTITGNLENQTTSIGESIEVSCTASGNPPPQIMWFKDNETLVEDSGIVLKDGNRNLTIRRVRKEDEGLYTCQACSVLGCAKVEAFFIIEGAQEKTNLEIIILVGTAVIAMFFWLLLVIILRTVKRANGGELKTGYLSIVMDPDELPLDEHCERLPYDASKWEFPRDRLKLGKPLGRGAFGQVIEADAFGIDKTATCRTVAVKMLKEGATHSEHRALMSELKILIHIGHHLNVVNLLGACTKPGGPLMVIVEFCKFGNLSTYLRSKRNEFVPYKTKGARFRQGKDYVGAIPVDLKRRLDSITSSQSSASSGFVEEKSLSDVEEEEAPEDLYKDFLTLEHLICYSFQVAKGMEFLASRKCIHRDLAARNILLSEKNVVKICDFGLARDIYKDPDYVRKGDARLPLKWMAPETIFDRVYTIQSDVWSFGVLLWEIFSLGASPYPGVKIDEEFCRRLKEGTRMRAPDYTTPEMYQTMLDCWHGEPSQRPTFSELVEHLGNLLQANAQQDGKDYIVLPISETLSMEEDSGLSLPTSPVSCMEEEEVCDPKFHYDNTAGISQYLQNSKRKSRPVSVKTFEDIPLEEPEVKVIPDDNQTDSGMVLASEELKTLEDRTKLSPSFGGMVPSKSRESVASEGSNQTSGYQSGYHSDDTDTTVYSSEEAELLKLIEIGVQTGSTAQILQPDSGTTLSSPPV

melanin = assay: Binding capacity of compounds to melanin; type: in vitro ADME, cuttlefish (Sepia officinalis); conditions: cuttlefish (Sepia officinalis), melanin suspension (1 mg/mL); 1 mg/mL melanin in PBS pH 7.4, 2 μM compound, 2 h at 37° C.; read-out: Fu % (percentage of free drug)
Summary of the method: (§2)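 Compound (2 μM final) incubated with washed Sepia melanin (1 mg/mL, PBS pH 7.4) 2 h at 37° C with shaking; PBS with 0.1% BSA served as blank. Supernatants quantified by LC-MS/MS; bound fraction Fb derived from melanin versus blank concentration.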

[4] = system: male black-banded Dutch rabbits
Description: The binding of the compound to melanin may affect ocular pharmacokinetics after topical administration. […] In such cases, the compound may bind to melanin tissues in the posterior segment (retinal pigment epithelium, choroid) or anterior segment (ciliary body, iris) of the eye.

[5] = rabbit; for MTD on the third day of eye drop administration: eye drops 3 times a day, both eyes; for MTD on the eighth day of eye drop administration: six consecutive days of eye drops, 3 times a day
Description: We used male Dutch black-banded rabbits to assess the MTD of the compounds administered in eye drops.
Male Dutch black-banded rabbits (weighing 1.5 kg to 2.5 kg) were purchased from an eligible supplier.
A total of 8 rabbits animals with good health conditions and normal eyes (without abnormalities such as trauma, congestion, redness and swelling) were randomly divided into 4 groups. […] Eye drop administration was conducted for two consecutive days, 3 times a day, at an interval of 6±0.5 hours. Before administration, the status of the dosing preparation was inspected, and its homogeneity was ensured by means of vortexing, stirring, or shaking. Before each administration, the states of rabbit eyes were observed, including but not limited to eye color, substances around the eyes, conjunctival swelling, eye exudate, discharge, cornea, pupillary reflex, etc. Subsequently, the toxicity risk assessment for six consecutive days of eye drop administration was further conducted. A total of 8 rabbits were randomly divided into 2 groups. […] Eye drop administration was conducted 3 times a day, at an interval of 6±0.5 hours.

[6] = Binding capacity of compounds to melanin; type: in vitro ADME, cuttlefish (Sepia officinalis)
Summary of the method: as §2

[7] = eye drops, male black-banded Dutch rabbits, third day after eye drop administration

T4 sequence (P00533 669-1210 limits assumed): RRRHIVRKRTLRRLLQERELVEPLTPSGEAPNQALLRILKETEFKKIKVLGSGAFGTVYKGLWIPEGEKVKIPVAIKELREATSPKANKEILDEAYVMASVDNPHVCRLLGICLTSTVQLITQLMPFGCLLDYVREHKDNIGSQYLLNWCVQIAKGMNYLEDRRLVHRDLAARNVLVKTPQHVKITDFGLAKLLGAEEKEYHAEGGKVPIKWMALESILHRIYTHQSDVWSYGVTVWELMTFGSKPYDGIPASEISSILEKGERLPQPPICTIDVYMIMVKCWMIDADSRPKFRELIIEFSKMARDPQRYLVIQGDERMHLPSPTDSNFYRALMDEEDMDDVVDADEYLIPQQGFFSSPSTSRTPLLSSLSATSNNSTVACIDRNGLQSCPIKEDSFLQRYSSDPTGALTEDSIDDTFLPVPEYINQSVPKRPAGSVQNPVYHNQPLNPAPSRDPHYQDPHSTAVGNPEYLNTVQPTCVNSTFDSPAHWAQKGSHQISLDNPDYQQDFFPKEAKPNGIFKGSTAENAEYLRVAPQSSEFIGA
T3 sequence (Q02763 23-1124): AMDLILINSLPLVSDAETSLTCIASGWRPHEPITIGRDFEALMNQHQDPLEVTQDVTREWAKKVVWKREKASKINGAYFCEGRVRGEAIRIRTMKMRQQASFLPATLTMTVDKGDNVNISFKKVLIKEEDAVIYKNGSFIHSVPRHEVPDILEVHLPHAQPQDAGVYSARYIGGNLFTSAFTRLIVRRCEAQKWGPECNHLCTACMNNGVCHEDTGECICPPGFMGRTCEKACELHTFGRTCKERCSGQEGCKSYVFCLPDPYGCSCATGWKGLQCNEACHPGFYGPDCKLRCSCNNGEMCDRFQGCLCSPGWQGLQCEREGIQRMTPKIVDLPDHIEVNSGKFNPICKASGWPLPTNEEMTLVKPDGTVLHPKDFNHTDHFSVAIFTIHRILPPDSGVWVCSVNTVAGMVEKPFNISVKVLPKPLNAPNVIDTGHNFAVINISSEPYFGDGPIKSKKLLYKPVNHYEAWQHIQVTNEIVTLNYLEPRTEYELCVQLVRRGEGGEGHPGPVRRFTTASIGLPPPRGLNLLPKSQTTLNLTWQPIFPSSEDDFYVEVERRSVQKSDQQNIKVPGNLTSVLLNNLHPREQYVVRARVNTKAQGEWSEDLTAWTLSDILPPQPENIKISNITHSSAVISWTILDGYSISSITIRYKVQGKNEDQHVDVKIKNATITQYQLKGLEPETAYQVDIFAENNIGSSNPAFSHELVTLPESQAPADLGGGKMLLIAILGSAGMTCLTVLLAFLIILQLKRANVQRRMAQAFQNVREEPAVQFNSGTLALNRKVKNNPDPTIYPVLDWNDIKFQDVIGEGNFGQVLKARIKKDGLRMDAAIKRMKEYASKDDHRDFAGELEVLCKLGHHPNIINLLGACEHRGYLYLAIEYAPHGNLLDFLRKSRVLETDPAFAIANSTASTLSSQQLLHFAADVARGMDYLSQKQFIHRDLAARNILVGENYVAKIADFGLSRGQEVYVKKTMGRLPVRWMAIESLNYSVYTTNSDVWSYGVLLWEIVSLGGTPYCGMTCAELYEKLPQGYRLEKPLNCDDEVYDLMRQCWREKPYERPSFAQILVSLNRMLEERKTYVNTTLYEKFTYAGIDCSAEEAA
T2 sequence (P35916 25-1363): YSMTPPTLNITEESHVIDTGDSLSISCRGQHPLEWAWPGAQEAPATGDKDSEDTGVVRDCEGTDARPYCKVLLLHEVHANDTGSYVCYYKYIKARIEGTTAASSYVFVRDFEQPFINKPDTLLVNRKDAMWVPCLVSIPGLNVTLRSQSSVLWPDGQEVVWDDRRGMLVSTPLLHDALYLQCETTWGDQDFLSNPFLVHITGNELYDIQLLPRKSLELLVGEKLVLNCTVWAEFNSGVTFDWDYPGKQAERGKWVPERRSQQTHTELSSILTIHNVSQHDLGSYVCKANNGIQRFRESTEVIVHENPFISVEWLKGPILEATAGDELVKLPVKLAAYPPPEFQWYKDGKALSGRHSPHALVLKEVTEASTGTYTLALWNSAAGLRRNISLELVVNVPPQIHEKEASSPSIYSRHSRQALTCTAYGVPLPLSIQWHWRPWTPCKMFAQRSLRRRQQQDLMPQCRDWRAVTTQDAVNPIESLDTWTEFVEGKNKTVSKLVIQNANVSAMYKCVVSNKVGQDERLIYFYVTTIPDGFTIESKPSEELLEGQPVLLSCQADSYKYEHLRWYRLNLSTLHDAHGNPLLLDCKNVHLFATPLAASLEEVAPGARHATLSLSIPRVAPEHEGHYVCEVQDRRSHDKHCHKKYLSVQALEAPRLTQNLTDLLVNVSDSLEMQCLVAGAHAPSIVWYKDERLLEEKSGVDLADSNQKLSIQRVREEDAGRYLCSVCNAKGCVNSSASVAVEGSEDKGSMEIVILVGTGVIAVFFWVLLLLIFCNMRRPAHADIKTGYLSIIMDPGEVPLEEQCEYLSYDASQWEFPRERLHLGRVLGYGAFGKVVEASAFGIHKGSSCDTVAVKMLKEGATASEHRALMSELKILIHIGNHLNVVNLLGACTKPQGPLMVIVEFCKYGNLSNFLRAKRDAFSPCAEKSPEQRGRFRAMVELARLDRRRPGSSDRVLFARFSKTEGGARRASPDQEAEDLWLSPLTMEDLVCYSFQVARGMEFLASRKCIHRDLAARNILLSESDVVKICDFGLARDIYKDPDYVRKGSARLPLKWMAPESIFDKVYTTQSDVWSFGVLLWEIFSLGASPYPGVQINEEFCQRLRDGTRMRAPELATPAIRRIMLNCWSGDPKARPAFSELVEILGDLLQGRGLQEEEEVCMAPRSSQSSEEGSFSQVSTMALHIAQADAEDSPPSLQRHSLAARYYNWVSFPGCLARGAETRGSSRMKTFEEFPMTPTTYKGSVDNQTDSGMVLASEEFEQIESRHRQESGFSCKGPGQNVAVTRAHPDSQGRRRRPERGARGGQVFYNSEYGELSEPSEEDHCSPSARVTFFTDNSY

SMILES: NC(=O)c1c(OCc2ccc3c(c2)OCC3)nsc1NC(=O)NCCCCN1CCCC1 [Compound T042, 3-((2,3-dihydrobenzofuran-6-yl)methoxy)-5-(3-(4-(pyrrolidin-1-yl)butyl)ureido)isothiazole-4-carboxamide]
- IC50 (VEGFR1): 34.3 nM
- IC50 (VEGFR3): 42 nM
- IC50 (TIE2): 448 nM
- IC50 (EGFR): 33000 nM
- IC50 (HUVEC cells): 79.9 nM
- solubility at 8 h [1]: 820 µg/mL (≈ 1780 µM)
- IC50 (VEGFR2 [2]): 14.2 nM
- IC50 (VEGFR2 [3]): 22 nM

SMILES: COc1ccc(F)c(COc2nsc(NC(=O)NCCCCN3CCCC3)c2C(N)=O)c1F [Compound T093, 3-((2,6-difluoro-3-methoxybenzyl)oxy)-5-(3-(4-(pyrrolidin-1-yl)butyl)ureido)isothiazole-4-carboxamide]
- IC50 (TIE2): 181 nM
- IC50 (EGFR): 14600 nM
- IC50 (HUVEC cells): 55.8 nM
- fraction unbound at 2 h, 2 μM (melanin): 0.0531
- maximum tolerated dose (MTD) [4, 7]: ≥ 250 μg/eye
- MTD on the third day of eye drop administration [5]: ≥ 250 μg/eye
- MTD on the eighth day of eye drop administration [5]: ≥ 250 μg/eye
- IC50 (VEGFR2 [2]): 12.4 nM

SMILES: COc1ccc(F)c(COc2nsc(NC(=O)NCCCCN3CC[C@H](O)C3)c2C(N)=O)c1F [Compound T104, 3-[(2,6-difluoro-3-methoxy-phenyl)methoxy]-5-[4-[(3S)-3-hydroxypyrrolidin-1-yl]butylcarbamoylamino] isothiazole-4-carboxamide]
- IC50 (EGFR): 18900 nM
- IC50 (HUVEC cells): 35.5 nM
- fraction unbound at 2 h, 2 μM (melanin): 0.0322
- IC50 (VEGFR2 [2]): 16.4 nM
- IC50 (VEGFR2 [3]): 34.5 nM

SMILES: COc1ccc(F)c(COc2nsc(NC(=O)NCCCCN3CC[C@@H](O)C3)c2C(N)=O)c1F [Compound T114, 3-[(2,6-difluoro-3-methoxy-phenyl)methoxy]-5-[4-[(3R)-3-hydroxypyrrolidin-1-yl]butylcarbamoylamino]isothiazole-4-carboxamide]
- IC50 (EGFR): 13400 nM
- IC50 (HUVEC cells): 19 nM
- fraction unbound at 2 h, 2 μM (melanin): 0.0333
- IC50 (VEGFR2 [2]): 12.8 nM
- IC50 (VEGFR2 [3]): 32.5 nM

SMILES: COc1cc(OC)c(F)c(COc2nsc(NC(=O)NCCC3CCN(CCF)CC3)c2C(N)=O)c1F [Compound T126, 3-[(2,6-difluoro-3,5-dimethoxy-phenyl)methoxy]-5-[2-[1-(2-fluoroethyl)-4-piperidyl]ethylcarbamoylamino]isothiazole-4-carboxamide]
- IC50 (EGFR): > 60000 nM
- IC50 (HUVEC cells): 22 nM
- fraction unbound at 2 h, 2 μM (melanin): 0.0495
- IC50 (VEGFR2 [2]): 2.7 nM
- IC50 (VEGFR2 [3]): 27 nM

SMILES: NC(=O)c1c(OCc2c(F)cc(Br)cc2F)nsc1NC(=O)NCCCCN1CCCC1 [PAN90806]
- IC50 (HUVEC cells): 76.8 nM
- solubility at 8 h [1]: 124 µg/mL (≈ 234 µM)
- Percentage of free drug with respect to melanin, comparison in words [6]: lower percentage of free drug
- fraction unbound at 2 h, 2 μM (melanin): 0.0129
- maximum tolerated dose (MTD) ([4]; eye drops to rabbits for six consecutive days): 50 μg/eye
- maximum tolerated dose (MTD) [4, 7]: 100 μg/eye
- Eye observations ([5]; 100 μg/eye, six consecutive days, seventh day): ocular toxicity (corneal opacity and conjunctival swelling, or corneal edema and conjunctival hyperemia, or ocular discharge) was observed in all the 4 rabbits
- MTD on the third day of eye drop administration [5]: 100 μg/eye
- MTD on the eighth day of eye drop administration [5]: 50 μg/eye
